From publication PMC3907829, “Characterization of an Invertebrate-Type Dopamine Receptor of the American Cockroach, Periplaneta americana” (International Journal of Molecular Sciences, 2014)
pEC50, pIC50: −log10 of the molar value. Several values for one entry are separate records, joined by “and”; a condition that tells them apart may be missing. Identical values can stand only once. Entries after “also recorded” stand apart in the source; their conditions may differ. Counter-ions that a name gives are not always drawn. Like-named read-outs stand apart in the source and are kept apart here. Blank lines part the entries; values can stand above or below the compound they belong to.

Legend:
PeaDOP2A receptor [1] = target: T1, PeaDOP2A receptor (Periplaneta americana, UniProt V6DNI7); experiment: cAMP production in HEK 293 cells stably expressing PeaDOP2A; type: cell-based; conditions: for effect on [cAMP]i (agonist, in words): ligand 10 μM; for effect on dopamine-induced increase in [cAMP]i (antagonist, in words): co-incubation with dopamine
T1 sequence (V6DNI7 entry or part of it): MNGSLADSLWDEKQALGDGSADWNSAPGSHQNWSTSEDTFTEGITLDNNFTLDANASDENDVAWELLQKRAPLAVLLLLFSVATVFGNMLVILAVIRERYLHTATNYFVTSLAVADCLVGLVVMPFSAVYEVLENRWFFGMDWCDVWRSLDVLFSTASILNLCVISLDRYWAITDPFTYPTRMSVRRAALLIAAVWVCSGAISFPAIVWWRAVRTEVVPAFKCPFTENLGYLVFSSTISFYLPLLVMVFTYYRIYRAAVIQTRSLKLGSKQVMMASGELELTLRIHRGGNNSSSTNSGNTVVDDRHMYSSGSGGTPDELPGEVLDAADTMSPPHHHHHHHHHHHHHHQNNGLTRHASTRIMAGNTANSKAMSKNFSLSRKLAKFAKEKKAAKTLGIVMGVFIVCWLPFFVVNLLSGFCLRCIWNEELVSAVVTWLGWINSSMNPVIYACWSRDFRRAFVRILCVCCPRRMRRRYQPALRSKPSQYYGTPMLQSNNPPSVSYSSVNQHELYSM
Procedure: Stably transfected cells were selected in the presence of the antibiotic G418 at 0.8 mg/mL. Isolated foci were propagated and analyzed for the expression of PeaDOP2A/B-HA by immunocytochemistry and Western blot analysis with a commercial anti-HA antibody (anti-HA high affinity; Roche, Penzberg, Germany).

PeaDOP2B receptor [2] = experiment: cAMP production in HEK 293 cells stably expressing PeaDOP2B; type: cell-based, Periplaneta americana; conditions: for change of intracellular cAMP level: biogenic amines 10 μM
Procedure: Approximately 8 μg pcPeadop2A/B-HA vector was separately introduced into exponentially growing HEK 293 cells (~4 × 10^5 cells per 5 cm Petri dish; Greiner, Frickenhausen, Germany) by a modified calcium phosphate method. Stably transfected cells were selected in the presence of the antibiotic G418 at 0.8 mg/mL. Isolated foci were propagated and analyzed for the expression of PeaDOP2A/B-HA by immunocytochemistry and Western blot analysis with a commercial anti-HA antibody (anti-HA high affinity; Roche, Penzberg, Germany).

[3] = target: Bombyx mori DOP2 receptor; conditions: read-out: EC50 for dopamine-induced cAMP increase; cited from earlier work
PeaDOP2A receptor [4] = target: T1, PeaDOP2A receptor; conditions: PeaDOP2A cell line
[5] = tested on: non-transfected HEK 293 cells; conditions: dopamine 1 nM to 10 μM
Procedure: Assays to determine the ability of PeaDOP2A/B-HA receptors to stimulate adenylyl cyclase activity were performed as described earlier [108]. PeaDOP2A/B-expressing cells were grown in minimal essential medium with GlutaMAX™ (Invitrogen, Karlsruhe, Germany), 10% (v/v) fetal bovine serum, 1% (v/v) non-essential amino acids, and antibiotics (all from Invitrogen, Karlsruhe, Germany). Cells were incubated with ligands for 30 min at 37 °C in the presence of the phosphodiesterase inhibitor isobutylmethylxanthine (IBMX; Sigma, Taufkirchen, Germany; final concentration 100 μM) and lysed by adding 0.5 mL ice-cold ethanol. After 1 h at 4 °C, the lysate was transferred to a reaction tube and lyophilized. The amount of cAMP produced was determined by using the TRK 432 cyclic AMP assay kit (GE Healthcare, Freiburg, Germany).

[6] = target: A. mellifera DOP2 receptor; conditions: read-out: EC50 for dopamine-induced cAMP increase; cited from earlier work
C. felis DOP2 receptor = conditions: read-out: EC50 for dopamine-induced cAMP increase; cited from earlier work
PeaDOP2B receptor [7] = conditions: PeaDOP2B cell line
[8] = target: D. melanogaster DOP2 receptor; conditions: read-out: EC50 for dopamine-induced cAMP increase; cited from earlier work
[9] = IC50 for blocking dopamine (300 nM)-induced cAMP increase, antagonist, in the presence of 300 nM dopamine, PeaDOP2A-expressing HEK 293 cells
[10] = log IC50, antagonist, log of molar IC50 (negative values), in the presence of 300 nM dopamine
[11] = agonist, HEK 293 cells expressing PeaDOP2A, 30 min, 37 °C, 100 μM IBMX, read-out: EC50 for increasing [cAMP]i
[12] = agonist, log of molar EC50 (negative values), PeaDOP2A-expressing HEK 293 cells
[13] = antagonist, in the presence of 300 nM dopamine, PeaDOP2A-expressing HEK 293 cells, read-out: IC50 for blocking dopamine (300 nM)-induced cAMP increase

effect on [cAMP]i (agonist, in words) (PeaDOP2A receptor [1]; PeaDOP2A-expressing cells): does not show any effect
SMILES: Oc1cc2c(cc1O)[C@@H](c1ccccc1)CNCC2 [SKF 38393, R(+)-SKF 38393 hydrochloride]

pIC50 (PeaDOP2A receptor [1]; [9]): 8.57
pIC50 (PeaDOP2A receptor [1]; [10]): 8.57
SMILES: CN(C)CCCN1c2ccccc2Sc2ccc(Cl)cc21 [chlorpromazine, Chlorpromazine hydrochloride]
effect on dopamine-induced increase in [cAMP]i (antagonist, in words) (PeaDOP2A receptor [1]; PeaDOP2A-expressing cells): able to counteract the dopamine-induced increase in [cAMP]i fully; also recorded: abolished

SMILES: CC(C)C[C@H]1C(=O)N2CCC[C@H]2[C@]2(O)O[C@](NC(=O)[C@@H]3C=C4c5cccc6[nH]c(Br)c(c56)C[C@H]4N(C)C3)(C(C)C)C(=O)N12 [bromocriptine, bromocriptine mesylate]
effect on [cAMP]i (agonist, in words) (PeaDOP2A receptor [1]; PeaDOP2A-expressing cells): fails to increase [cAMP]i

SMILES: Cl.NCCc1c[nH]c2ccc(O)cc12 [serotonin, 5-hydroxytryptamine hydrochloride]
effect on [cAMP]i (agonist, in words) (PeaDOP2A receptor [1]; PeaDOP2A-expressing cells): no effect
change of intracellular cAMP level (PeaDOP2B receptor [2]): None of the biogenic amines induced a change

SMILES: Cl.Cl.OCCN1CCN(CCC=C2c3ccccc3Sc3ccc(C(F)(F)F)cc32)CC1 (mixture of isomers) [flupentixol, cis(Z)-flupentixol dihydrochloride]
cAMP as percentage of the value with 300 nM dopamine (=100%) (PeaDOP2A receptor [1]; 10 μM antagonist in the presence of 300 nM dopamine, basal level […]): 7.0%
effect on dopamine-induced increase in [cAMP]i (antagonist, in words) (PeaDOP2A receptor [1]; PeaDOP2A-expressing cells): able to counteract the dopamine-induced increase in [cAMP]i fully
effect on dopamine-induced increase in [cAMP]i (antagonist, in words) (PeaDOP2A receptor [1]; PeaDOP2A-expressing cells, listed as cis(Z)-flupentixol): abolished
log IC50 (PeaDOP2A receptor [1]; antagonist, log of molar IC50 (negative values), in the presence of 300 nM dopamine): −8.189

SMILES: NC1CCc2cc(O)c(O)cc2C1 (racemic) [6,7-ADTN, (±)-2-amino-6,7-dihydroxy-1,2,3,4-tetrahydronaphthalene]
effect on [cAMP]i (agonist, in words) (PeaDOP2A receptor [1]; PeaDOP2A-expressing cells): lead to an increase in [cAMP]i; also recorded: mimicked
pEC50 (PeaDOP2A receptor [1]; [11]): 7.12
logEC50 (PeaDOP2A receptor [1]; [12]): −7.117

SMILES: NCCc1ccc(O)c(O)c1 [dopamine, dopamine hydrochloride]
pEC50 [3]: 5.89
change in [Ca2+]i upon dopamine incubation (PeaDOP2A receptor [4]): Neither PeaDOP2 receptor cause changes in [Ca^2+]i
effect on [cAMP]i, dose-response [5]: None of the dopamine concentrations showed an effect
pEC50 [6]: 5.66
pEC50 (C. felis DOP2 receptor): 5.62
change in [Ca2+]i upon dopamine incubation (PeaDOP2B receptor [7]): Neither PeaDOP2 receptor cause changes in [Ca^2+]i
cAMP production (PeaDOP2A receptor [1]; 10 μM ligand, PeaDOP2A-expressing cells): 300 pmol cAMP/mg protein
pEC50 (PeaDOP2A receptor [1]; EC50 for increasing [cAMP]i, agonist, HEK 293 cells expressing PeaDOP2A, 30 min, 37 °C, 100 μM IBMX): 6.80 and 6.79
concentration for maximal stimulation of cAMP synthesis (PeaDOP2A receptor [1]; PeaDOP2A-expressing cells, dose range 1 nM to 10 μM): ≥ 1 µM
effect on [cAMP]i (agonist, in words) (PeaDOP2A receptor [1]; PeaDOP2A-expressing cells): leads to an increase in [cAMP]i
pEC50 (PeaDOP2A receptor [1]; logEC50, agonist, log of molar EC50 (negative values), PeaDOP2A-expressing HEK 293 cells): 6.78 and 6.79
change of intracellular cAMP level (PeaDOP2B receptor [2]): None of the biogenic amines induced a change
effect on [cAMP]i, dose-response (PeaDOP2B receptor [2]; dopamine 1 nM to 10 μM): None of the dopamine concentrations showed an effect; also recorded: does not affect [cAMP]i
pEC50 [8]: 6.46

pEC50 (PeaDOP2A receptor [1]; [11]): 6.42
logEC50 (PeaDOP2A receptor [1]; [12]): −6.418
SMILES: C=CCN1CCc2c(cc(O)c(O)c2Cl)C(c2ccccc2)C1 (racemic) [6-chloro-APB, (±)-6-Chloro-7,8-dihydroxy-3-allyl-1-phenyl-2,3,4,5-tetrahydro-1H-3-benzazepine]
effect on [cAMP]i (agonist, in words) (PeaDOP2A receptor [1]; PeaDOP2A-expressing cells): lead to an increase in [cAMP]i; also recorded: mimicked

SMILES: NCCc1c[nH]cn1 [histamine, histamine dihydrochloride]
effect on [cAMP]i (agonist, in words) (PeaDOP2A receptor [1]; PeaDOP2A-expressing cells): no effect
change of intracellular cAMP level (PeaDOP2B receptor [2]): None of the biogenic amines induced a change

pIC50 (PeaDOP2A receptor [1]; [13]): 5.75
IC50 (PeaDOP2A receptor [1]; antagonist, log of molar IC50 (negative values), in the presence of 300 nM dopamine, read-out: log IC50 (converted)): 1790 nM
SMILES: CN1CCc2cc(Cl)c(O)cc2[C@@H](c2ccccc2)C1 [SCH 23390, R(+)-SCH 23390 hydrochloride]
effect on dopamine-induced increase in [cAMP]i (antagonist, in words) (PeaDOP2A receptor [1]; PeaDOP2A-expressing cells): able to counteract the dopamine-induced increase in [cAMP]i fully

effect on [cAMP]i (agonist, in words) (PeaDOP2A receptor [1]; PeaDOP2A-expressing cells): lead to an increase in [cAMP]i
SMILES: CN1CCc2cccc3c2[C@H]1Cc1ccc(O)c(O)c1-3 [apomorphine, apomorphine hydrochloride hemihydrate]

effect on [cAMP]i (agonist, in words) (PeaDOP2A receptor [1]; PeaDOP2A-expressing cells): no effect
SMILES: NCCc1ccc(O)cc1 [tyramine, tyramine hydrochloride]
change of intracellular cAMP level (PeaDOP2B receptor [2]): None of the biogenic amines induced a change

effect on [cAMP]i (agonist, in words) (PeaDOP2A receptor [1]; PeaDOP2A-expressing cells): no effect
SMILES: NCC(O)c1ccc(O)cc1 (racemic) [octopamine, (±)-octopamine hydrochloride]
change of intracellular cAMP level (PeaDOP2B receptor [2]): None of the biogenic amines induced a change

pIC50 (PeaDOP2A receptor [1]; [9]): 6.49
pIC50 (PeaDOP2A receptor [1]; [10]): 6.49
SMILES: CC(C)(C)[C@]1(O)CCN2C[C@H]3c4ccccc4CCc4cccc(c43)[C@@H]2C1 [butaclamol, S(+)-butaclamol hydrochloride]
effect on dopamine-induced increase in [cAMP]i (antagonist, in words) (PeaDOP2A receptor [1]; PeaDOP2A-expressing cells): able to counteract the dopamine-induced increase in [cAMP]i fully

SMILES: OCCN1CCN(CC/C=C2/c3ccccc3Sc3ccc(C(F)(F)F)cc32)CC1 [flupentixol, cis(Z)-flupentixol dihydrochloride]
pIC50 (PeaDOP2A receptor [1]; [13]): 8.19
